# According to ChEMBL document CHEMBL1137892, “Pyrimidine methyl anilines: selective potentiators for the metabotropic glutamate 2 receptor” (Bioorg Med Chem Lett, 2004):
# Experiments:
# Assay type in all cases: functional
# [1] = target: Metabotropic glutamate receptor 2 (Homo sapiens) (UniProt Q14416); assay: Level of potentiation of Metabotropic glutamate receptor 2 was determined by measuring the percentage activation of [35S]GTP-gamma-S, in the presence of 10 uM glutamate
# [2] = target: Metabotropic glutamate receptor 2 (Homo sapiens) (UniProt Q14416); assay: Binding potency against Metabotropic glutamate receptor 2 was determined by measuring the concentration required to activate 50% of [35S]GTP-gamma-S, in presence of 10 uM glutamate
# [3] = target: Metabotropic glutamate receptor 3 (Homo sapiens) (UniProt Q14832); assay: Binding potency against Metabotropic glutamate receptor 3 was determined by measuring the concentration required to activate 50% of [35S]GTP-gamma-S, in presence of glutamate; inactive
# Chain of Metabotropic glutamate receptor 3 (Homo sapiens) (Q14832 23-879 limits assumed): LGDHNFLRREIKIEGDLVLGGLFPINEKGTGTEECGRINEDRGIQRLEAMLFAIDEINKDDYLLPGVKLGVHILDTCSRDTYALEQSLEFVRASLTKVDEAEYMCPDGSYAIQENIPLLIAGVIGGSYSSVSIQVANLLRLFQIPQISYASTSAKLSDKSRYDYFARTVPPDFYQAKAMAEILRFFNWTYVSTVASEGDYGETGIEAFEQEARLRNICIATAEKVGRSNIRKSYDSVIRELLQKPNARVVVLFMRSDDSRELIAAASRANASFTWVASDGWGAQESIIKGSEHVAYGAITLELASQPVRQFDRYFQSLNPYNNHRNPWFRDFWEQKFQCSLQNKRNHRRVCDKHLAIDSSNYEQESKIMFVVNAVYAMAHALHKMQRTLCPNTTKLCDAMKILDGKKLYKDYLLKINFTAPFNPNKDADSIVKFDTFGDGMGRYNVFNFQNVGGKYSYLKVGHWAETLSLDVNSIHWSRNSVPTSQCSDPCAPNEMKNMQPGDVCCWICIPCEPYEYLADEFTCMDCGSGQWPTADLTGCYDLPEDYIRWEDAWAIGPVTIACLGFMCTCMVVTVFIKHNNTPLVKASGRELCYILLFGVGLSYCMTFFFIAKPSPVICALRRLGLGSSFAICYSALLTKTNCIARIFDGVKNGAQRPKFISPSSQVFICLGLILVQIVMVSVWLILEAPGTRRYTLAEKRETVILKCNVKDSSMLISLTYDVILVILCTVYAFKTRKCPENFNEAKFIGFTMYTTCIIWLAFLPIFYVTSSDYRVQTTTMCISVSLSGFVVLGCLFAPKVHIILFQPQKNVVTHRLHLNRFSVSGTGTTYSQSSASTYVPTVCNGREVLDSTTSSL
# Chain of Metabotropic glutamate receptor 2 (Homo sapiens) (Q14416 19-872 limits assumed): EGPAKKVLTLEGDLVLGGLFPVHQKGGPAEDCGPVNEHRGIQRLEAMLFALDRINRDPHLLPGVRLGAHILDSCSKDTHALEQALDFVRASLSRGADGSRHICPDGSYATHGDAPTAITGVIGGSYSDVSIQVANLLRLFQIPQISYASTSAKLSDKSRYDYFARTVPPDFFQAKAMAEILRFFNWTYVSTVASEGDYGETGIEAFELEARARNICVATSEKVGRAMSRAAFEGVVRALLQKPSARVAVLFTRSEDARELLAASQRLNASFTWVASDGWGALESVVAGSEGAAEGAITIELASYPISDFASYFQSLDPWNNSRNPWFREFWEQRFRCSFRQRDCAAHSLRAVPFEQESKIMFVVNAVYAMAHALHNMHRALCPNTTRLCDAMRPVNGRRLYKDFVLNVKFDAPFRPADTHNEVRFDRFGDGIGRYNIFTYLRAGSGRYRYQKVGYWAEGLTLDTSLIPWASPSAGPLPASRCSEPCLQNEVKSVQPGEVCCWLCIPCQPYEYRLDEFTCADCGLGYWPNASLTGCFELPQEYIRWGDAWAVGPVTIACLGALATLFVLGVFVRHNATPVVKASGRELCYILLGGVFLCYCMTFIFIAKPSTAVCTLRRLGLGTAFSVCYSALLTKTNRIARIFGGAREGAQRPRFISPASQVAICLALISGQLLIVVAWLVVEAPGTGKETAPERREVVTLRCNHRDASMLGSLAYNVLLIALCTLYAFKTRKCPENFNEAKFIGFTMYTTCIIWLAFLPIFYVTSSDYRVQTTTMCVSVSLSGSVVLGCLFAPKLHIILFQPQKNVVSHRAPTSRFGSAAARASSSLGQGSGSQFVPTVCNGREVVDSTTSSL
Potentiation [1],ED50 [2],Concentration [3],SMILES
39%,810 nM,,O=C(OCc1cccc(N(Cc2cncnc2)S(=O)(=O)CC(F)(F)F)c1)c1ccccc1
41%,4300 nM,,CCCC(C)Oc1cccc(NCc2cnc3ccccc3c2)c1 (stereo unspecified)
52%,1700 nM,,COc1ccccc1Oc1ccc(N(Cc2cccnc2)S(=O)(=O)CC(F)(F)F)cc1
26%,19000 nM,,FC(F)(F)Oc1cccc(NCc2cncnc2)c1
18%,1000 nM,,FC(F)(F)c1ccccc1Cc1cccc(NCc2cnc3ccccc3c2)c1
48%,660 nM,,CC(C)(C)[Si](C)(C)OCc1cccc(N(Cc2cncnc2)S(=O)(=O)CC(F)(F)F)c1
46%,860 nM,,O=S(=O)(CC(F)(F)F)N(Cc1cncnc1)c1cccc(Oc2ccccc2F)c1
52%,660 nM,,O=S(=O)(CC(F)(F)F)N(Cc1cncnc1)c1cccc(Oc2ccccc2)c1
73%,970 nM,,O=S(=O)(CC(F)(F)F)N(Cc1cncnc1)c1cccc(Oc2ccccc2C(F)(F)F)c1
40%,5200 nM,,FC(F)(F)Oc1cccc(NCc2cnc3ccccc3c2)c1

# More lines, now with the values behind:
SMILES,Potentiation [1],ED50 [2],Concentration [3]
c1ccc(NCc2cncnc2)cc1,68%,9600 nM,
O=S(=O)(CC(F)(F)F)N(Cc1cncnc1)c1cccc(Cc2ccccc2)c1,43%,540 nM,
O=S(=O)(CC(F)(F)F)N(Cc1cncnc1)c1cccc(Oc2ccccc2Br)c1,40%,1100 nM,
c1ccc(Cc2cccc(NCc3cncnc3)c2)cc1,31%,710 nM,
COc1ccccc1Oc1cccc(N(Cc2cncnc2)S(=O)(=O)CC(F)(F)F)c1,62%,760 nM,
CCCC(C)Oc1cccc(N(Cc2cncnc2)S(=O)(=O)CC(F)(F)F)c1 (stereo unspecified),31%,350 nM,10 µM
O=S(=O)(CC(F)(F)F)N(Cc1cncnc1)c1cccc(COc2ccccc2)c1,51%,1200 nM,
Cc1ccccc1Oc1cccc(N(Cc2cncnc2)S(=O)(=O)CC(F)(F)F)c1,53%,630 nM,
O=S(=O)(CC(F)(F)F)N(Cc1cncnc1)c1ccc(Oc2ccccc2)cc1,37%,560 nM,
O=S(=O)(CC(F)(F)F)N(Cc1cncnc1)c1cccc(OC2CCCC2)c1,60%,840 nM,
